{
  "source": "paper PMC5581245",
  "about": "(Electrophoresis, 2017)",
  "data": [
    {"assay": "Retention of glycopeptides on reversed phase C18 nanoLC-MS", "assay_type": "physicochemical", "conditions": "difference between glycoform with and without fucose; RP C18 nanoLC, gradient 3", "values": [
      {"sequence": "VVLHPNYSQVDIGLIK [tetra-antennary glycoform of VVLHPNYSQVDIGLIK]", "RRT difference introduced by fucose (RRT expressed as trx/trGlcNAc form)": 0.00035},
      {"sequence": "VVLHPNYSQVDIGLIK [tri-antennary glycoform of VVLHPNYSQVDIGLIK]", "RRT difference introduced by fucose (RRT expressed as trx/trGlcNAc form)": 0.00096},
      {"sequence": "VVLHPNYSQVDIGLIK [bi-antennary glycoform of VVLHPNYSQVDIGLIK]", "RRT difference introduced by fucose (RRT expressed as trx/trGlcNAc form)": 0.00204}
    ]}
  ]
}
